Assay results taken from PubChem BioAssay AID256 (DTP/NCI, 2004).
“And” between values parts separate entries of the source, which are not always exact repeats. Identical values can stand only once. Toxic doses and inconclusive results are not listed. Rule for the calls: active = survival T/C of 150% or more; inactive = T/C below 125% in these data.

System: CD2F1 mice, L1210 leukemia ip, survival T/C
Assay: NCI In Vivo Anticancer Drug Screen. Data for tumor model L1210 Leukemia (intraperitoneal) in CD2F1 (CDF1) mice
Settings: higher = longer survival
Method in brief: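 Tumor-bearing mice (transplanted tumor) were split into treated and vehicle control groups, and the measured endpoint of each treated group was divided by that of its vehicle controls.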

[1] = endpoint: mean survival time, dose: 100.0 mg/kg/injection, schedule: Q04DX002 (ip), vehicle: saline with Tween-80
[2] = endpoint: mean survival time, dose: 200.0 mg/kg/injection, schedule: Q04DX002 (ip), vehicle: saline with Tween-80
[3] = endpoint: mean survival time, dose: 400.0 mg/kg/injection, schedule: Q04DX002 (ip), vehicle: saline with Tween-80
[4] = endpoint: mean survival time, dose: 200.0 mg/kg/injection, schedule: Q04DX003 (ip), vehicle: saline with Tween-80
[5] = endpoint: mean survival time, dose: 25.0 mg/kg/injection, schedule: Q04DX003 (ip), vehicle: saline with Tween-80
[6] = endpoint: mean survival time, dose: 100.0 mg/kg/injection, schedule: Q01DX001 (ip), vehicle: saline with Tween-80
[7] = endpoint: mean survival time, dose: 200.0 mg/kg/injection, schedule: Q01DX001 (ip), vehicle: saline with Tween-80
[8] = endpoint: mean survival time, dose: 400.0 mg/kg/injection, schedule: Q01DX001 (ip), vehicle: saline with Tween-80
[9] = endpoint: mean survival time, dose: 100.0 mg/kg/injection, schedule: Q01DX009 (ip), vehicle: saline
[10] = endpoint: mean survival time, dose: 200.0 mg/kg/injection, schedule: Q01DX009 (ip), vehicle: saline
[11] = endpoint: mean survival time, dose: 50.0 mg/kg/injection, schedule: Q04DX002 (ip), vehicle: saline with Tween-80

Measured: T/C

Cc1cc(OC(=S)N(C)C)c(S(=O)(=O)F)cc1Cl
inactive: [1] 95 % of control | [2] 98 % of control | [3] 95 % of control

CN1CCCN(C)C1c1cc(Br)ccc1O
inactive: endpoint: mean survival time, dose: 6.25 mg/kg/injection, schedule: Q01DX009 (ip), vehicle: saline sonified 100 % of control | endpoint: mean survival time, dose: 12.5 mg/kg/injection, schedule: Q01DX009 (ip), vehicle: saline sonified 104 % of control | endpoint: mean survival time, dose: 25.0 mg/kg/injection, schedule: Q01DX009 (ip), vehicle: saline sonified 94 % of control | endpoint: mean survival time, dose: 100.0 mg/kg/injection, schedule: Q04DX003 (ip), vehicle: saline with Tween-80 101 % of control | [4] 95 % of control | endpoint: mean survival time, dose: 400.0 mg/kg/injection, schedule: Q04DX003 (ip), vehicle: saline with Tween-80 95 % of control

NC1=NC(c2ccccc2)N(c2cccc(Cl)c2)C(N)=N1 (stereo not given)
inactive: endpoint: mean survival time, dose: 25.0 mg/kg/injection, schedule: Q01DX001 (ip), vehicle: saline 107 % of control | endpoint: mean survival time, dose: 50.0 mg/kg/injection, schedule: Q01DX001 (ip), vehicle: saline 104 % of control | endpoint: mean survival time, dose: 100.0 mg/kg/injection, schedule: Q01DX001 (ip), vehicle: saline 101 % of control

CCCCCCCCCCC(C)c1ccc(S(=O)(=O)O)cc1 (stereo not given)
inactive: endpoint: mean survival time, dose: 50.0 mg/kg/injection, schedule: Q01DX009 (ip), vehicle: saline sonified 97 % of control | endpoint: mean survival time, dose: 100.0 mg/kg/injection, schedule: Q01DX009 (ip), vehicle: saline sonified 97 % of control | endpoint: mean survival time, dose: 200.0 mg/kg/injection, schedule: Q01DX009 (ip), vehicle: saline sonified 102 % of control

Nc1ccc2ccccc2c1N=Nc1ccc(C(O)C(N)CO)cc1 (stereo not given)
inactive: endpoint: mean survival time, dose: 6.25 mg/kg/injection, schedule: Q04DX003 (ip), vehicle: saline with Tween-80 100 % of control | endpoint: mean survival time, dose: 12.5 mg/kg/injection, schedule: Q04DX003 (ip), vehicle: saline with Tween-80 96 % of control | [5] 94 % of control

CCCCOS(=O)(=O)c1ccc(C)cc1
inactive: endpoint: mean survival time, dose: 100.0 mg/kg/injection, schedule: Q04DX002 (ip), vehicle: Klucel (hydroxypropylcellulose) (HPC) 93 % of control | endpoint: mean survival time, dose: 200.0 mg/kg/injection, schedule: Q04DX002 (ip), vehicle: Klucel (hydroxypropylcellulose) (HPC) 101 % of control | endpoint: mean survival time, dose: 400.0 mg/kg/injection, schedule: Q04DX002 (ip), vehicle: Klucel (hydroxypropylcellulose) (HPC) 90 % of control

CCCCCCCCC(O)CCCCCCCCC(=O)O (stereo not given)
inactive: [6] 93 % of control | [7] 87 % of control | [8] 87 % of control

COC(=O)C1OC(OC(C)=O)C(OC(C)=O)C(OC(C)=O)C1C(=O)OC (stereo not given)
inactive: [6] 93 % of control | endpoint: mean survival time, dose: 100.0 mg/kg/injection, schedule: Q01DX009 (ip), vehicle: saline with Tween-80 101 % of control | [7] 95 % of control | endpoint: mean survival time, dose: 200.0 mg/kg/injection, schedule: Q01DX009 (ip), vehicle: saline with Tween-80 105 % of control | [8] 93 % of control | endpoint: mean survival time, dose: 400.0 mg/kg/injection, schedule: Q01DX009 (ip), vehicle: saline with Tween-80 105 % of control

NC(=O)CC(N)C(=O)O (stereo not given)
inactive: endpoint: mean survival time, dose: 50.0 mg/kg/injection, schedule: Q01DX009 (ip), vehicle: other 102 % of control | endpoint: mean survival time, dose: 50.0 mg/kg/injection, schedule: Q01DX009 (ip), vehicle: saline 97 % of control | endpoint: mean survival time, dose: 100.0 mg/kg/injection, schedule: Q01DX009 (ip), vehicle: other 98 % of control | [9] 101 % of control | endpoint: mean survival time, dose: 200.0 mg/kg/injection, schedule: Q01DX009 (ip), vehicle: other 98 % of control | [10] 103 % of control | endpoint: mean survival time, dose: 400.0 mg/kg/injection, schedule: Q01DX009 (ip), vehicle: other 104 % of control | endpoint: mean survival time, dose: 400.0 mg/kg/injection, schedule: Q01DX009 (ip), vehicle: saline 103 % of control | endpoint: mean survival time, dose: 800.0 mg/kg/injection, schedule: Q01DX009 (ip), vehicle: other 104 % of control | endpoint: mean survival time, dose: 800.0 mg/kg/injection, schedule: Q01DX009 (ip), vehicle: saline 100 % of control | endpoint: mean survival time, dose: 1600.0 mg/kg/injection, schedule: Q01DX009 (ip), vehicle: other 98 % of control | endpoint: mean survival time, dose: 1600.0 mg/kg/injection, schedule: Q01DX009 (ip), vehicle: saline 101 % of control

O=[P+](O)C(O)c1ccccc1 (stereo not given)
inactive: endpoint: mean survival time, dose: 100.0 mg/kg/injection, schedule: Q04DX003 (ip), vehicle: saline 108 % of control | endpoint: mean survival time, dose: 200.0 mg/kg/injection, schedule: Q04DX003 (ip), vehicle: saline 111 % of control | endpoint: mean survival time, dose: 400.0 mg/kg/injection, schedule: Q04DX003 (ip), vehicle: saline 117 % of control

CCOC(=O)c1ccc(NC(=O)Nc2ccc(Cl)cc2Cl)cc1
inactive: endpoint: mean survival time, dose: 12.5 mg/kg/injection, schedule: Q01DX001 (ip), vehicle: saline with Tween-80 95 % of control | endpoint: mean survival time, dose: 12.5 mg/kg/injection, schedule: Q01DX009 (ip), vehicle: saline with Tween-80 91 % of control and 92 % of control | endpoint: mean survival time, dose: 25.0 mg/kg/injection, schedule: Q01DX001 (ip), vehicle: saline with Tween-80 93 % of control and 96 % of control | endpoint: mean survival time, dose: 25.0 mg/kg/injection, schedule: Q01DX009 (ip), vehicle: saline with Tween-80 88 % of control and 97 % of control | endpoint: mean survival time, dose: 25.0 mg/kg/injection, schedule: Q04DX002 (ip), vehicle: saline with Tween-80 95 % of control and 96 % of control | [5] 86 % of control | endpoint: mean survival time, dose: 50.0 mg/kg/injection, schedule: Q01DX001 (ip), vehicle: saline with Tween-80 91 % of control | endpoint: mean survival time, dose: 50.0 mg/kg/injection, schedule: Q01DX009 (ip), vehicle: saline with Tween-80 88 % of control | [11] 88 % of control and 96 % of control | endpoint: mean survival time, dose: 50.0 mg/kg/injection, schedule: Q04DX003 (ip), vehicle: saline with Tween-80 91 % of control | [7] 92 % of control | [2] 88 % of control | [4] 89 % of control | [3] 86 % of control

CCOC(=O)/C(C#N)=N/Nc1cccc(Cl)c1Cl
inactive: [1] 96 % of control | [2] 96 % of control | [3] 100 % of control

COC(=O)C1(F)C(=O)NC(=O)NC1OC (stereo not given)
inactive: endpoint: median survival time, dose: 50.0 mg/kg/injection, schedule: Q01DX005 (ip), vehicle: Klucel (hydroxypropylcellulose) (HPC) 124 % of control | endpoint: median survival time, dose: 50.0 mg/kg/injection, schedule: Q01DX005 (ip), vehicle: saline with Tween-80 124 % of control | endpoint: median survival time, dose: 50.0 mg/kg/injection, schedule: Q01DX009 (ip), vehicle: Klucel (hydroxypropylcellulose) (HPC) 121 % of control | endpoint: median survival time, dose: 400.0 mg/kg/injection, schedule: Q01DX005 (ip), vehicle: saline with Tween-80 112 % of control | endpoint: median survival time, dose: 800.0 mg/kg/injection, schedule: Q01DX005 (ip), vehicle: Klucel (hydroxypropylcellulose) (HPC) 104 % of control | endpoint: median survival time, dose: 800.0 mg/kg/injection, schedule: Q01DX005 (ip), vehicle: saline with Tween-80 109 % of control | endpoint: median survival time, dose: 800.0 mg/kg/injection, schedule: Q01DX009 (ip), vehicle: Klucel (hydroxypropylcellulose) (HPC) 108 % of control
active: endpoint: median survival time, dose: 72.0 mg/kg/injection, schedule: Q01DX009 (ip), vehicle: Klucel (hydroxypropylcellulose) (HPC) 153 % of control | endpoint: median survival time, dose: 100.0 mg/kg/injection, schedule: Q01DX005 (ip), vehicle: saline with Tween-80 156 % of control | endpoint: median survival time, dose: 100.0 mg/kg/injection, schedule: Q01DX009 (ip), vehicle: Klucel (hydroxypropylcellulose) (HPC) 158 % of control and 176 % of control | endpoint: median survival time, dose: 120.0 mg/kg/injection, schedule: Q01DX009 (ip), vehicle: Klucel (hydroxypropylcellulose) (HPC) 172 % of control | endpoint: median survival time, dose: 200.0 mg/kg/injection, schedule: Q01DX005 (ip), vehicle: Klucel (hydroxypropylcellulose) (HPC) 183 % of control | endpoint: median survival time, dose: 200.0 mg/kg/injection, schedule: Q01DX005 (ip), vehicle: saline with Tween-80 178 % of control | endpoint: median survival time, dose: 200.0 mg/kg/injection, schedule: Q01DX009 (ip), vehicle: Klucel (hydroxypropylcellulose) (HPC) 159 % of control and 197 % of control and 238 % of control | endpoint: median survival time, dose: 400.0 mg/kg/injection, schedule: Q01DX005 (ip), vehicle: Klucel (hydroxypropylcellulose) (HPC) 185 % of control

C/C=C/C=C/C(=O)c1ccc(OC)cc1O
inactive: [11] 86 % of control | [1] 101 % of control | [2] 89 % of control | [3] 89 % of control

O=C1OC(=O)C2CCCC3CCCC1C32 (stereo not given)
inactive: [1] 108 % of control | [2] 108 % of control

C1CCC2CN(CCCN3CCOCC3)CC2C1 (stereo not given)
inactive: [9] 102 % of control | [10] 96 % of control
